Results on 1 molecule are retold here after patent publication US20200383946A1, “LIPOIC ACID FORMULATIONS” (Aciont Inc., priority 2019, published 2020).

This data set in a line: physchem. To be noted: aqueous buffer, solubility of DHLA. Format: physicochemical. The source says:
Dihydrolipoic acid (DHLA) was obtained from Sigma (Cat #T8260).
Again, the PBS helped maintain the pH within a suitable pH range.

In the case of `O=C(O)CCCC[C@@H](S)CCS` (racemic) [DHLA, Dihydrolipoic acid], the solubility – broadly, the concentration that dissolves in the medium under given conditions – is greater than 76 mg/mL.
